≈ marks a conversion by molar mass, not a printed value.
Legend:
Staphylococcus aureus [1] = assay: Antimicrobial activity against Staphylococcus aureus infected in hydrocephalic rabbit administered intraventricularly as single dose; details: Cardiac ventricle
Streptococcus pneumoniae = assay: Antimicrobial activity against penicillin-, quinolone-resistant Streptococcus pneumoniae WB4 infected in experimental rabbit meningitis model; assay type: functional
Listeria monocytogenes [2] = assay: Antimicrobial activity against Listeria monocytogenes isolated from cerebrospinal fluid of meningitis patient by broth dilution method; assay type: functional
Listeria monocytogenes [3] = assay: Antimicrobial activity against Listeria monocytogenes isolated from cerebrospinal fluid of meningitis patient by Etest method; assay type: functional
Staphylococcus aureus [4] = assay: Antimicrobial activity against methicillin-susceptible Staphylococcus aureus infected in experimental rabbit meningitis model; assay type: functional
Homo sapiens = assay: Plasma concentration in healthy human at 4 mg/kg, iv QD; assay type: ADME, organism-based; parameters: dose 4 mg/kg, route intravenous; details: in vivo

Q: Which results are given for CCCCCCCCCC(=O)N[C@@H](Cc1c[nH]c2ccccc12)C(=O)N[C@H](CC(N)=O)C(=O)N[C@@H](CC(=O)O)C(=O)N[C@@H]1C(=O)NCC(=O)N[C@@H](CCCN)C(=O)N[C@@H](CC(=O)O)C(=O)N[C@H](C)C(=O)N[C@@H](CC(=O)O)C(=O)NCC(=O)N[C@H](CO)C(=O)N[C@@H]([C@H](C)CC(=O)O)C(=O)N[C@@H](CC(=O)c2ccccc2N)C(=O)O[C@@H]1C?
A: MIC (Staphylococcus aureus [1]): 0.25 µg/mL (≈ 0.154 µM); MIC (Streptococcus pneumoniae): 0.06 µg/mL (≈ 0.037 µM); MIC90 (Listeria monocytogenes [2]): 4 µg/mL (≈ 2.47 µM); MIC90 (Listeria monocytogenes [3]): 4 µg/mL (≈ 2.47 µM); MIC95 (Listeria monocytogenes [3]): 1 µg/mL (≈ 0.617 µM); MIC (Staphylococcus aureus [4]): 1 µg/mL (≈ 0.617 µM); Cp (Homo sapiens): 60 mg/L
